Columns and labels:
[1] = tested on: neuropathic pain in mice (mechanical stimulus); experiment: Neuropathic pain model (SNL), mechanical pain threshold (von Frey); assay type: in vivo; conditions: intragastric 40 mg/kg; for efficacy duration of a single dose / time after administration at which significant efficacy was shown: SNL, mechanical; for threshold of paw withdrawal response to mechanical stimulus: day 7 after SNL, FIG. 6
[2] = tested on: OGD-injuried neurons (primary cortical neurons); experiment: Cell viability assay: LDH release by OGD-injured primary cortical neurons; assay type: cell-based, mice; conditions: drug concentration 10^−6 M/L, OGD 2 hours, LDH after 8 hours
Protocol: After primary neurons were cultured for 9 days, the medium was replaced by DMEM high glucose medium containing 1% FBS, serum-starved overnight and then washed twice with OGD culture solution. This OGD culture solution contains DMEM medium, 1% FBS, 1% penicillin/streptomycin and B27, and contains no sugar. Then, the primary neurons were incubated with the test drugs for 30 minutes, OGD culture solution was added into an anaerobic tank and oxygen-deprived for 2 hours. The OGD culture solution was discarded, and replaced by oxygen-saturated DMEM medium containing 1% FBS, 1% penicillin/streptomycin and B27. After 8 hours the culture solution was collected to measure LDH level.
After the primary cortical neurons were treated with various processes, neuronal culture solution in six-well plates was pipetted to a 1.5 mL plastic centrifuge tube; cells were washed three times with PBS solution and each well was added PBS 1000 μl. The cells were freezed and thawed repeated for three times, centrifuged at 12000′ g for 5 minutes at 4° C., and the supernatant was removed for use. The activity of LDH enzyme was determined with 50 μl culture solution and 25 μl supernatant using lactate dehydrogenase kit.
Protective Effects of the Objective Compounds Against Primary Cortical Neuronal Injury Cultured In Vitro (See Table 2)

[3] = tested on: acute focal cerebral ischemia/reperfusion injury in rats; experiment: MCAO focal cerebral ischemia/reperfusion injury: infarct area and neurological defect score; assay type: in vivo; conditions: tail vein 1.5 mg/kg 1 h after reperfusion, 48 h, FIG. 8; for cerebral infarct area: MCAO 120 min
Source text: Cerebral ischemia injury was induced by middle cerebral artery occlusion (MCAO) reperfusion model. […] The neck skin was incised along median line, and neck muscle tissue was bluntly dissected to expose and carefully isolate the common carotid artery (CCA) on the right side. The concomitant vagus nerve was gently peeled and ligated, and inward and superficial external carotid artery (ECA) was cut off; pterygopalatine artery, outward branch artery near skull base along internal carotid artery (ICA), was isolated and ligated. […] At this point, the blood supply to the middle cerebral arteries (MCA) including carotid artery and ramus communicans before Waldeyer's ring were all blocked. The depth of the inserted line was determined based on the mark. Extravascular part of the line was ligated and fixed to prevent the line from slippage. After rightside cerebral ischemia 120 minutes, the line was carefully unplugged and the broken end was ligated to achieve reperfusion after ischemia. Suturing the skin, and the rats were returned to cage and fed carefully. The body temperature of the animals was maintained constantly at 37±0.5° C. during surgery.
The modified Bederson 5-score method was used for evaluation of neurological defect symptoms. Neurological defect symptoms of rats after cerebral ischemia was evaluated by single-blinded method, i.e., test animals were marked by group by the test designers and testers who graded neurological defect symptoms didn't know the animal grouping, after the grading the testers submitted the grading results with various marks to the designers, and the designers unblinded the grouping to obtain scores for each animal in each test group.
The animals were anesthetized with 10% chloral hydrate 3.5 ml/kg, the brains were taken out after beheading, and olfactory bulb, cerebellum and lower brain stem were removed. Blood on the surface of the brain was washed with normal saline and residual water on the surface was absorbed. The brains were placed at −80° C. for 7 min, and once taken out were sliced at the coronal cross planes vertically to the sight plane with 2 mm intervals between the slices. The brain slices were immersed in a water bath (37° C., 90 min) containing 20 g/L TTC dye freshly prepared with 0.2 mol/L pH 7.4˜7.8 PBS, and normal brain tissues were stained crimson while ischemic brain tissues were pale. After the tissues were washed with normal saline, the brain slices were rapidly aligned in a row from front to back in order, and the surface residual water was absorbed to dry surface, then photographed. Statistics of the pictures were carried on using image analysis software, and ischemic area (white area) and total area on the right side were delineated. The percentage of cerebral infarct area was calculated using the following formula.
Neurological deficit symptoms were evaluated 48 h after the cerebral ischemia, then the animals were sacrificed and the brains were taken out, TTC stained, and infarct areas of the stained brain slices were measured.
The rats were under MCAO for 120 min, and 1 h after reperfusion the rats were injected through tail vein with ZL006-06, ZL006-16, ZL006-28, ZL006-30, ZL006-43, ZL006-82 or an equivalent volume of solvent, wherein the doses of each drug were 1.5 mg/kg, and the volume of injected drugs was 0.1 ml/100 g weight. Neurological deficit symptoms were evaluated 48 h after the cerebral ischemia, then the animals were sacrificed and the brains were taken out, TTC stained, and infarct areas of the stained brain slices were measured.

Compound: COC(=O)c1ccc(N(Cc2cc(Br)cc(Cl)c2O)C(C)=O)cc1OC(C)=O [ZL006-82, methyl 2-acetyloxy-4-[N-(2-hydroxy-3-chloro-5-bromobenzyl)-N-acetyl]aminobenzoate]
- efficacy duration of a single dose [1]: about 6 hours
- time after administration at which significant efficacy was shown [1]: 0.5 h
- threshold of paw withdrawal response to mechanical stimulus [1]: significantly increased
- Inhibition of LDH release (%) [2]: 61.2%
- neurological defect symptoms [3]: significantly alleviated
- cerebral infarct area [3]: significantly reduced

Compound: CC1(C)C2CCC1(C)C(OC(=O)c1cc(Cl)c(NCc3cc(Cl)cc(Cl)c3O)cc1O)C2 (centres unmarked) [ZL006-16, bornyl-2-hydroxy-4-(2-hydroxy-3,5-dichlorobenzyl)amino-5-chlorobenzoate]
- efficacy duration of a single dose [1]: about 6 hours
- time after administration at which significant efficacy was shown [1]: 0.5 h
- threshold of paw withdrawal response to mechanical stimulus [1]: significantly increased
- inhibition at 1 µM ([2]; Mus musculus, Primary cortical neuron): 60.3%
- neurological defect symptoms [3]: significantly alleviated
- cerebral infarct area [3]: significantly reduced

Compound: CC(=O)Oc1cc(NCc2cc(Br)cc(Cl)c2O)ccc1C(=O)OC1CC2CCC1(C)C2(C)C (centres unmarked) [ZL006-43, bornyl-2-acetyloxy-4-(2-hydroxy-3-chloro-5-bromobenzyl) aminobenzoate]
- efficacy duration of a single dose [1]: about 6 hours
- time after administration at which significant efficacy was shown [1]: 0.5 h
- threshold of paw withdrawal response to mechanical stimulus [1]: significantly increased
- Inhibition of LDH release (%) [2]: 68.9%
- neurological defect symptoms [3]: significantly alleviated
- cerebral infarct area [3]: significantly reduced

Compound: CC(=O)N(Cc1cc(Cl)cc(Cl)c1O)c1ccc(C(=O)OC2CC3CCC2(C)C3(C)C)c(O)c1 (centres unmarked) [ZL006-28, bornyl-2-hydroxy-4-[N-(2-hydroxy-3,5-dichlorobenzyl)-N-acetyl]aminobenzoate]
- efficacy duration of a single dose [1]: about 6 hours
- time after administration at which significant efficacy was shown [1]: 0.5 h
- threshold of paw withdrawal response to mechanical stimulus [1]: significantly increased
- Inhibition of LDH release (%) [2]: 61.6%
- neurological defect symptoms [3]: significantly alleviated
- cerebral infarct area [3]: significantly reduced

Compound: CC(=O)Oc1cc(NCc2cc(Cl)cc(Cl)c2O)ccc1C(=O)OC1CC2CCC1(C)C2(C)C (centres unmarked) [ZL006-06, bornyl-2-acetyloxy-4-(2-hydroxy-3,5-dichlorobenzyl) aminobenzoate]
- efficacy duration of a single dose [1]: about 6 hours
- time after administration at which significant efficacy was shown [1]: 0.5 h
- threshold of paw withdrawal response to mechanical stimulus [1]: significantly increased
- Inhibition of LDH release (%) [2]: 55.8%
- neurological defect symptoms [3]: significantly alleviated
- cerebral infarct area [3]: significantly reduced

Compound: CC(=O)Oc1cc(N(C)Cc2cc(Cl)cc(Cl)c2O)ccc1C(=O)OC1CC2CCC1(C)C2(C)C (centres unmarked) [ZL006-30, bornyl-2-acetyloxy-4-[N-(2-hydroxy-3,5-dichlorobenzyl)-N-methyl]aminobenzoate]
- efficacy duration of a single dose [1]: about 6 hours
- time after administration at which significant efficacy was shown [1]: 0.5 h
- threshold of paw withdrawal response to mechanical stimulus [1]: significantly increased
- Inhibition of LDH release (%) [2]: 65.9%
- neurological defect symptoms [3]: significantly alleviated
- cerebral infarct area [3]: significantly reduced

Compound: methyl 2-acetyloxy-4-[N-(2-hydroxy-3,5-dichlorobenzyl)-N-(bornyl-2-carbonylethyl)]aminobenzoate [ZL006-38]
- Inhibition of LDH release (%) [2]: 41.3%

Compound: CC(=O)Oc1cc(NCc2cc(Cl)cc(Cl)c2O)c(Cl)cc1C(=O)OC1CC2CCC1(C)C2(C)C (centres unmarked) [ZL006-18, bornyl-2-acetyloxy-4-(2-hydroxy-3,5-dichlorobenzyl) amino-5-chlorobenzoate]
- Inhibition of LDH release (%) [2]: 41.5%

— patent US9481636B2, “N-benzylaniline derivative and uses thereof” (Nanjing Medical University, priority 2011, dated 2016)
